Data: patent publication US20230117470A1, “SUBSTITUTED PYRAZOLE COMPOUNDS AS TOLL RECEPTOR INHIBITORS” (BRISTOL-MYERS SQUIBB COMPANY, priority 2019, published 2023)

Columns and labels:
Assay type in all cases: cell-based
human TLR7 = molecular target: T1, human TLR7 (Homo sapiens, UniProt Q9NYK1); experiment: TLR7 inhibition reporter assay (HEK-Blue cells, SEAP reporter, gardiquimod stimulation); settings: HEK-Blue cells overexpressing human TLR7, SEAP reporter, gardiquimod 7.5 μM
T1 construct: host or cells: HEK-Blue cells
T1 sequence (Q9NYK1 27-1049): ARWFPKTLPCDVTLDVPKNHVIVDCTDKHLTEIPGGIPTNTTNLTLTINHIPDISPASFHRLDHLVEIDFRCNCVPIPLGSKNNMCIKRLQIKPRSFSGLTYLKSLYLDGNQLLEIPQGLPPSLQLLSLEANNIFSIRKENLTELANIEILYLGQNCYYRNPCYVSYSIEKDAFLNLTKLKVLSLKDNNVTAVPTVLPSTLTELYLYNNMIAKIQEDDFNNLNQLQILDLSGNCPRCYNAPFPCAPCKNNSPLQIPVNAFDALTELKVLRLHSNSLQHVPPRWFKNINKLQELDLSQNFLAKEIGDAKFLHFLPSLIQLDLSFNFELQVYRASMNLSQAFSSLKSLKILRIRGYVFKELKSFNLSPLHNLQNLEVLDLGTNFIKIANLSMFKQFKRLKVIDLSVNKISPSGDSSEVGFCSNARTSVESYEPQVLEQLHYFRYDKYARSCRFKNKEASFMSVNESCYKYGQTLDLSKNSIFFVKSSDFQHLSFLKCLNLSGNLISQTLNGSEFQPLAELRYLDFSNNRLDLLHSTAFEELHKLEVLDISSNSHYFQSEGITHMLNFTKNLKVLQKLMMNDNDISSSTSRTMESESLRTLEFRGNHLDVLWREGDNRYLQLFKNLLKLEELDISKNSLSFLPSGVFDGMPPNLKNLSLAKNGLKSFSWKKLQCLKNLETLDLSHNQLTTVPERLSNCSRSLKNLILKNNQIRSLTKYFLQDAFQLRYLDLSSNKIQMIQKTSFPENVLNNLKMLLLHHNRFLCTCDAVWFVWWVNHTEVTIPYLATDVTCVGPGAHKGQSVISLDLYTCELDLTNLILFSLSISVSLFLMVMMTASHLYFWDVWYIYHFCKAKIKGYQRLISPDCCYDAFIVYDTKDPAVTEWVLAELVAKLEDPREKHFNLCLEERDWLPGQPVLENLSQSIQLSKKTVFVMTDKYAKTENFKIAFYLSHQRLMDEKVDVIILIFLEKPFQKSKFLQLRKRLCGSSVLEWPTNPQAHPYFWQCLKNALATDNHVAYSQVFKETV
Outline: (§1)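 HEK-Blue cells overexpressing human TLR7, TLR8 or TLR9, with an NF-κB/AP-1-driven SEAP reporter, pre-treated 30 min at room temperature with compound (0.05 nM-50 μM final). Stimulated with 7.5 μM gardiquimod (TLR7), 15.9 μM R848 (TLR8) or 5 nM ODN2006 (TLR9), then 22 h at 37° C. SEAP read with HEK-Blue Detection; % inhibition set against agonist+DMSO and known-inhibitor wells.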

human TLR9 = molecular target: T2, human TLR9 (Homo sapiens, UniProt Q9NR96); experiment: TLR9 inhibition reporter assay (HEK-Blue cells, SEAP reporter, ODN2006 stimulation); settings: HEK-Blue cells overexpressing human TLR9, SEAP reporter, ODN2006 5 nM
T2 construct: host or cells: HEK-Blue cells
T2 sequence (Q9NR96 26-1032): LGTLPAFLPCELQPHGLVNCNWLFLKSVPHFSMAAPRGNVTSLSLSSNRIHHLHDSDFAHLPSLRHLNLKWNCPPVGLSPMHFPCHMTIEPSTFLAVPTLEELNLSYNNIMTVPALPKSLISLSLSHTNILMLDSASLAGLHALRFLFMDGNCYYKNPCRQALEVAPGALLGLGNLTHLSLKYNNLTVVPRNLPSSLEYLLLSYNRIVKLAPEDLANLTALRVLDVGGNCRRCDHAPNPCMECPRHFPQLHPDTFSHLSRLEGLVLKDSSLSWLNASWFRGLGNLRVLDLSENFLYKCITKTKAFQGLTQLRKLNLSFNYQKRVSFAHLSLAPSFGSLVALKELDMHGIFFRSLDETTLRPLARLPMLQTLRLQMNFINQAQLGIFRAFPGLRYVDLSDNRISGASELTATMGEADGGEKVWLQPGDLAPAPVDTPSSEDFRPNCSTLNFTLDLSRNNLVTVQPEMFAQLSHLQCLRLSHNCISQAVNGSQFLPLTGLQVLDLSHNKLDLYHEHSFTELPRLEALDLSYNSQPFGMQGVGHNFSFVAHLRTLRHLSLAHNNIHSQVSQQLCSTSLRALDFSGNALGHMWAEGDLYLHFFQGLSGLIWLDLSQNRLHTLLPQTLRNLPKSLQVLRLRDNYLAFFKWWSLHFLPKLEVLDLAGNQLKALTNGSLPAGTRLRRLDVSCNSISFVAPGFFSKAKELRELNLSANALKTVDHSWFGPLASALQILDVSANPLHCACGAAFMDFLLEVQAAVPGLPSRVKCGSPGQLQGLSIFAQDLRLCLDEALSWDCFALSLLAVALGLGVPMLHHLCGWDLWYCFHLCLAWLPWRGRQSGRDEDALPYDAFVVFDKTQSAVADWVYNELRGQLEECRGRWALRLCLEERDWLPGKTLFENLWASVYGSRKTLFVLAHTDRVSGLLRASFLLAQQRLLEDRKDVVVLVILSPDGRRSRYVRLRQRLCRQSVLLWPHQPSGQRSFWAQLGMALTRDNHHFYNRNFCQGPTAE
Outline: as §1

human TLR8 = molecular target: T3, human TLR8 (Homo sapiens, UniProt Q9NR97); experiment: TLR8 inhibition reporter assay (HEK-Blue cells, SEAP reporter, R848 stimulation); settings: HEK-Blue cells overexpressing human TLR8, SEAP reporter, R848 15.9 μM
T3 construct: host or cells: HEK-Blue cells
T3 sequence (Q9NR97 27-1041): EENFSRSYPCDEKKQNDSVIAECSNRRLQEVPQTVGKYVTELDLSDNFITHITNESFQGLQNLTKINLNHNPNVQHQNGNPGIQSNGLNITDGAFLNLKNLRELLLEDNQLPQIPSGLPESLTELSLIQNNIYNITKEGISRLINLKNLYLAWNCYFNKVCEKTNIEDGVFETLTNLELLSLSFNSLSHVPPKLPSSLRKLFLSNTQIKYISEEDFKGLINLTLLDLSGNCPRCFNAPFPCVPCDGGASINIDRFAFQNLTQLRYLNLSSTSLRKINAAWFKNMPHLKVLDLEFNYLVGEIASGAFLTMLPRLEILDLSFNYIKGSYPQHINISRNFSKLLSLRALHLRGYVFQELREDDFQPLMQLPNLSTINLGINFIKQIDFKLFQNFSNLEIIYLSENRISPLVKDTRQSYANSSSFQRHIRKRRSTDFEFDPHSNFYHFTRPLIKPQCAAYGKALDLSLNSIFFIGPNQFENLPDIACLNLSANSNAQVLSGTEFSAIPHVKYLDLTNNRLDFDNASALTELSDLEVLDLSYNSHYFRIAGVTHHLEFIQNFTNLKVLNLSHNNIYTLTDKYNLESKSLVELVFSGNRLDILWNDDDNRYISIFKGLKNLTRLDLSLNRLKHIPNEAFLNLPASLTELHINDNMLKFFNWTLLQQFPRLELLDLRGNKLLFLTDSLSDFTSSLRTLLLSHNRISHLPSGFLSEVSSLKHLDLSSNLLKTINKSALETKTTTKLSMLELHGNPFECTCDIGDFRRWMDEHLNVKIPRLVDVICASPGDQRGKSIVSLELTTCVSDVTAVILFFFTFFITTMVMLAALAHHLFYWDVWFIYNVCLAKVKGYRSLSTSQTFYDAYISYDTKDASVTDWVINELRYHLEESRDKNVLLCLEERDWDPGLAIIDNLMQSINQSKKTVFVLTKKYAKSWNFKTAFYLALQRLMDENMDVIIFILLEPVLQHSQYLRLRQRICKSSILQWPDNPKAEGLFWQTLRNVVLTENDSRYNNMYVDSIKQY
Outline: as §1

IC50 (human TLR7) [µM]	IC50 (human TLR9) [µM]	IC50 (human TLR8) [µM]	Structure (SMILES)
0.0603	> 50	0.0416	Cc1cc(-c2[nH]nc(C(=O)NCC3CN(CC(C)(C)C)CCO3)c2C(C)C)cn2ncnc12 (stereo not drawn) [Example 145]
0.00666	9.25	0.00421	Cc1cc(-c2[nH]nc(C(=O)NC3CCN(C4CCOCC4)CC3)c2CC(F)(F)F)cn2ncnc12 [Example 201]
0.0278	22.3	0.00662	Cc1cc(-c2[nH]nc(C(=O)NC3CCN(C4CCOCC4)CC3)c2C(C)C)cn2ncnc12 [Example 153]
0.00127	4.77	0.00101	Cc1cc(-c2[nH]nc(C(=O)N3CCCN(C)CC3)c2C(C)C)cn2ncnc12 [Example 23]
0.0011	6.67	0.00374	Cc1cc(-c2[nH]nc(C(=O)N[C@H]3CCCNC3)c2C(C)C)cn2ncnc12 [Example 54]
0.00225	8.91	0.00027	Cc1cc(-c2[nH]nc(C3CCC(N(C)C(=O)CN(C)C)CC3)c2C(C)C)cn2ncnc12 (single isomer, unassigned) [compound 297]
0.00369	16.1	0.00806	CCN(CCC#N)C(=O)c1n[nH]c(-c2cc(C)c3ncnn3c2)c1C(C)C [Example 20]
0.00192	3.84	0.00094	Cc1cc(-c2[nH]nc(C(=O)N3CCN(c4ccncc4)CC3)c2C(C)C)cn2ncnc12 [Example 14]
0.00808	3.43	0.00827	Cc1cc(-c2[nH]nc(C(=O)N(C)Cc3cccnc3)c2C(C)C)cn2ncnc12 [Example 17]
0.00496	17.5	0.0263	Cc1cc(-c2[nH]nc(C(=O)NCC3CN(C)CCO3)c2C(C)C)cn2ncnc12 (stereo not drawn) [Example 139]
0.0343	16.9	0.0313	Cc1cc(-c2[nH]nc(-c3nc4c(s3)CN(C)CC4)c2C(C)C)cn2ncnc12 [Example 256]
0.0482	9.76	0.345	Cc1cc(-c2[nH]nc(-c3ccc(N4CC(NC(C)C)C4)cc3)c2C(C)C)cn2ncnc12 [Example 409]
0.011	23.9	0.00108	Cc1cc(-c2[nH]nc(C3CCC(NCC(F)F)CC3)c2C(C)C)cn2ncnc12 (single isomer, unassigned) [Example 279, N-(2,2-difluoroethyl)-4-(4-isopropyl-5-(8-methyl-[1,2,4]triazolo[1,5-a]pyridin-6-yl)-1H-pyrazol-3-yl)cyclohexan-1-amine]
0.0191	> 50	0.0224	COc1cc(-c2[nH]nc(-c3ccc(C4CCN(C)CC4)cn3)c2C(C)C)cn2ncnc12 [Example 348]
0.637	46.2	0.713	Cc1cc(-c2[nH]nc(-c3cn4c(n3)CNCC4)c2C(C)C)cn2ncnc12 [Example 219]
0.0936	> 50	0.481	Cc1cc(-c2[nH]nc(-c3ncc(C4CCN(CC(C)(C)O)CC4)cn3)c2C(C)C)cn2ncnc12 [Example 390]
0.0248	> 50	0.0146	Cc1cc(-c2[nH]nc(C(=O)N[C@H]3CC[C@@H](N)CC3)c2C(C)C)cn2ncnc12 [Example 63]
0.0503	37.1	0.168	COc1cc(-c2[nH]nc(-c3ccc(C4CCN(CC(=O)N(C)C)CC4)cn3)c2C(C)C)cn2ncnc12 [Example 389, 2-(4-(6-(4-isopropyl-5-(8-methoxy-[1,2,4]triazolo[1,5-a]pyridin-6-yl)-1H-pyrazol-3-yl)pyridin-3-yl)piperidin-1-yl)-N,N-dimethylacetamide]
0.00119	8.43	0.00266	CC(C)c1c(C(=O)NC2CCN(C)CC2)n[nH]c1-c1cn(C)c2ncccc12 [Example 41]
0.00681	6.09	0.0279	Cc1cc(-c2[nH]nc(C(=O)N[C@H]3CC[C@H](NCC4CCCC4)CC3)c2C(C)C)cn2ncnc12 [Example 109]
